Columns and labels:
human PDE4B1 = target: T1, human PDE4B1 (Homo sapiens, UniProt Q07343); experiment: TR-FRET assay using the LANCE Ultra cAMP kit to determine the activity of hPDE4B1; assay type: biochemical; conditions: read-out: Inhibition in % (inhibition of PDE4B); for inhibition at 1 µM: test concentration 1 μM; for inhibition at 10 µM: test concentration 10 μM (marked in cell)
T1 construct: host or cells: Sf9 cells
Procedure, shortened: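 Sf9-expressed recombinant human PDE4B1 (0.96 U) hydrolyses 500 nM cAMP for 30 minutes at room temperature in 50 mM Tris-HCl, 50 mM MgCl2, 5 mM DTT, pH 8.5. The reaction is stopped with IBMX, and residual cAMP is measured by TR-FRET (665/620 ratio). IC50 comes from ten concentrations.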

T1 sequence (Q07343 whole entry): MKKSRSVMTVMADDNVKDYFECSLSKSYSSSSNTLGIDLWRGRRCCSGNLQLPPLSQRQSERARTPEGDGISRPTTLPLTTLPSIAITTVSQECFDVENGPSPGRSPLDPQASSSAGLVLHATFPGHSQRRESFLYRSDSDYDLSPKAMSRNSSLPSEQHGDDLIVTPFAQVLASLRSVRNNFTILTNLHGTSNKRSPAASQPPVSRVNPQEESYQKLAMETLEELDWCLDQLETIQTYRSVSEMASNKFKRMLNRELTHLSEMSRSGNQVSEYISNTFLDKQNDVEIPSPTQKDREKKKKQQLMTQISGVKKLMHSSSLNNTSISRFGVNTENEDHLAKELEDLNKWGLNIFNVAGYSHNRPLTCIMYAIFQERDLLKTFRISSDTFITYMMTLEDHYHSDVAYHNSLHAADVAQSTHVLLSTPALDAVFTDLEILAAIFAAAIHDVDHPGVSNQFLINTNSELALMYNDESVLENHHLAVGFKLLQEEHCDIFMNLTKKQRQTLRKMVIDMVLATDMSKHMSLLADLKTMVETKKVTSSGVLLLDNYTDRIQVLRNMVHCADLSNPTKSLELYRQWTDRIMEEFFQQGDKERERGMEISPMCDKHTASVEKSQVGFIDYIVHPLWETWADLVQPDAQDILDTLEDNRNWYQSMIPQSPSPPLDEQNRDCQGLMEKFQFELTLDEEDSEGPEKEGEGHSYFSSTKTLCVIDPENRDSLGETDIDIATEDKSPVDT

inhibition at 1 µM (human PDE4B1) [%]	melting point [°C]	inhibition at 10 µM (human PDE4B1) [%]	Structure (SMILES)
95	253 to 256	–	C[S+]([O-])c1cn(-c2ncc(-c3cc(C#N)cs3)cn2)c2cc(C(=O)N3CCOCC3)ccc12 (centres unmarked) [Example 195, 5-(2-(3-(Methylsulfinyl)-6-(morpholine-4-carbonyl)-1H-indol-1-yl)pyrimidin-5-yl)thiophene-3-carbonitrile]
96	302 to 305	–	C[S+]([O-])c1cn(-c2ncc(-c3cc(C(N)=O)cs3)cn2)c2cc(C(=O)N3CCOCC3)ccc12 (centres unmarked) [Example 196, 5-(2-(3-(Methylsulfinyl)-6-(morpholine-4-carbonyl)-1H-indol-1-yl)pyrimidin-5-yl)thiophene-3-carboxamide]
96	232 to 235	–	Cc1csc(-c2cnc(-n3cc([S+](C)[O-])c4ccc(C(=O)N5CCOCC5)cc43)nc2)c1 (centres unmarked) [Example 197]
67	273 to 276	–	C[S+]([O-])c1cn(-c2ncc(-c3nc(C#N)cs3)cn2)c2cc(C(=O)N3CCOCC3)ccc12 (centres unmarked) [Example 203, 2-(2-(3-(Methylsulfinyl)-6-(morpholine-4-carbonyl)-1H-indol-1-yl)pyrimidin-5-yl)thiazole-4-carbonitrile]
82	286 to 288	–	C[S+]([O-])c1cn(-c2ncc(-c3nc(C(N)=O)cs3)cn2)c2cc(C(=O)N3CCOCC3)ccc12 (centres unmarked) [Example 204, 2-(2-(3-(Methylsulfinyl)-6-(morpholine-4-carbonyl)-1H-indol-1-yl)pyrimidin-5-yl)thiazole-4-carboxamide]
93	247 to 249	–	Cc1csc(-c2cnc(-n3cc([S+](C)[O-])c4ccc(C(=O)N5CCOCC5)cc43)nc2)n1 (centres unmarked) [Example 205, (3-(Methylsulfinyl)-1-(5-(4-methylthiazol-2-yl)pyrimidin-2-yl)-1H-indol-6-yl)(morpholino)methanone]
85	257 to 260	–	Cc1cnc(-c2cnc(-n3cc([S+](C)[O-])c4ccc(C(=O)N5CCOCC5)cc43)nc2)s1 (centres unmarked) [Example 206, (3-(Methylsulfinyl)-1-(5-(5-methylthiazol-2-yl)pyrimidin-2-yl)-1H-indol-6-yl)(morpholino)methanone]
82	286 to 289	–	C[S+]([O-])c1cn(-c2ncc(-c3ncc(C(N)=O)s3)cn2)c2cc(C(=O)N3CCOCC3)ccc12 (centres unmarked) [Example 208, 2-(2-(3-(Methylsulfinyl)-6-(morpholine-4-carbonyl)-1H-indol-1-yl)pyrimidin-5-yl)thiazole-5-carboxamide]
87	206 to 210	–	C[S+]([O-])c1cn(-c2ncc(-c3ccccc3F)cn2)c2cc(C(=O)N3CCO[C@@H](CO)C3)ccc12 (stereo partly drawn) [Example 219, (1-(5-(2-Fluorophenyl)pyrimidin-2-yl)-3-(methylsulfinyl)-1H-indol-6-yl)((R)-2-(hydroxymethyl)morpholino)methanone]
93	194 to 198	–	C[S+]([O-])c1cn(-c2ncc(-c3ccccc3F)cn2)c2cc(C(=O)N3CCO[C@H](CO)C3)ccc12 (stereo partly drawn) [Example 220, (1-(5-(2-Fluorophenyl)pyrimidin-2-yl)-3-(methylsulfinyl)-1H-indol-6-yl)((S)-2-(hydroxymethyl)morpholino)methanone]
94	88 to 92	–	CN(CCN)C(=O)c1ccc2c([S+](C)[O-])cn(-c3ncc(-c4ccccc4F)cn3)c2c1 (centres unmarked) [Example 221, N-(2-Aminoethyl)-1-(5-(2-fluorophenyl)pyrimidin-2-yl)-N-methyl-3-(methylsulfinyl)-1H-indole-6-carboxamide]
–	160 to 163	102	CCc1ccnc(-c2cnc(-n3cc([S+](C)[O-])c4ccc(C(=O)N5CC[C@@H](N)C5)cc43)nc2)c1 (stereo partly drawn) [Example 337, ((R)-3-Aminopyrrolidin-1-yl)(1-(5-(4-ethylpyridin-2-yl)pyrimidin-2-yl)-3-(methylsulfinyl)-1H-indol-6-yl)methanone]
–	264 to 268	99	CC(C)c1ccnc(-c2cnc(-n3cc([S+](C)[O-])c4ccc(C(=O)N5CC[C@@H](N)C5)cc43)nc2)c1 (stereo partly drawn) [Example 338, ((R)-3-Aminopyrrolidin-1-yl)(1-(5-(4-isopropylpyridin-2-yl)pyrimidin-2-yl)-3-(methylsulfinyl)-1H-indol-6-yl)methanone]
–	278 to 281	105	C[S+]([O-])c1cn(-c2ncc(-c3cc(C4CC4)ccn3)cn2)c2cc(C(=O)N3CC[C@@H](N)C3)ccc12 (stereo partly drawn) [Example 339, ((R)-3-Aminopyrrolidin-1-yl)(1-(5-(4-cyclopropylpyridin-2-yl)pyrimidin-2-yl)-3-(methylsulfinyl)-1H-indol-6-yl)methanone]
–	157 to 160	100	Cc1ccnc(-c2cnc(-n3cc(S(C)(=O)=O)c4ccc(C(=O)N5CC[C@@H](N)C5)cc43)nc2)c1 [Example 340, (R)-(3-Aminopyrrolidin-1-yl)(1-(5-(4-methylpyridin-2-yl)pyrimidin-2-yl)-3-(methylsulfonyl)-1H-indol-6-yl)methanone]
87	122 to 126	–	CNCCN(C)C(=O)c1ccc2c([S+](C)[O-])cn(-c3ncc(-c4ccccc4F)cn3)c2c1 (centres unmarked) [Example 346, 1-(5-(2-Fluorophenyl)pyrimidin-2-yl)-N-methyl-N-(2-(methylamino)ethyl)-3-(methylsulfinyl)-1H-indole-6-carboxamide]
–	141 to 144	97	C[S+]([O-])c1cn(-c2ncc(-c3ccccc3F)cn2)c2cc(C(=O)N3CC4CCC3CN4)ccc12 (centres unmarked) [Example 347, 2,5-Diazabicyclo[2.2.2]octan-2-yl(1-(5-(2-fluorophenyl)pyrimidin-2-yl)-3-(methylsulfinyl)-1H-indol-6-yl)methanone]
71	177 to 181	–	O=C(c1ccc2c(C3CC3)cn(-c3ncc(-c4ccccc4F)cn3)c2c1)N1CCOCC1 [Example 354, (3-Cyclopropyl-1-(5-(2-fluorophenyl)pyrimidin-2-yl)-1H-indol-6-yl)(morpholino) methanone]

Structure (SMILES)	inhibition at 1 µM (human PDE4B1) [%]	melting point [°C]	inhibition at 10 µM (human PDE4B1) [%]
C[S+]([O-])c1cn(-c2ncc(-c3ccccc3F)cn2)c2cc(C(=O)N3C4CCC3CNC4)ccc12 (centres unmarked) [Example 348, 3,8-Diazabicyclo[3.2.1]octan-8-yl(1-(5-(2-fluorophenyl)pyrimidin-2-yl)-3-(methylsulfinyl)-1H-indol-6-yl)methanone]	99	237 to 240	–

Reference: patent US9315490B2, “2,5-substituted pyrimidines” (Grünenthal GmbH, priority 2014, dated 2016)
